Data on 32 molecules can be found in patent US20220313698A1, “MODULATORS OF CYSTIC FIBROSIS TRANSMEMBRANE CONDUCTANCE REGULATOR” (Vertex Pharmaceuticals Incorporated, priority 2019, published 2022).

Broadly, the EC50 is the midpoint of the concentration-response curve.

This experiment concerns the target CFTR-mediated chloride transport (Homo sapiens, UniProt P13569). As to the kind of experiment: Corrector Assay A - membrane potential dye assay (enteroid cells). The conditions noted are these: for Corrector Assay A % activity: % of chloride transport of triple combination control (1 μM (14S)-dispiro macrocycle + 3 μM tezacaftor + 300 nM ivacaftor); for EC50: read-out: Corrector Assay A EC50, human intestinal enteroid cells, 18-24 h incubation, acute 10 μM forskolin + 300 nM ivacaftor.

Turning to `CC(C)(C)c1ccc2c(n1)N1C[C@@H](CCC(C3CCN(C(=O)OCc4ccccc4)CC3)Nc3cccc(n3)S(=O)(=O)NC2=O)CC1(C)C` (single isomer, unassigned) [Compound 255], the “Corrector Assay A % activity” value is listed as “+++ (+++ is >60%)” and the EC50 was under 1000 nM.

Turning to `CC(C)(C)c1ccc2c(n1)N1CC(CCCOc3cccc(c3)S(=O)(=O)NC2=O)CC1(C)C` (single isomer, unassigned) [Compound 256, 8-tert-butyl-12,12-dimethyl-18-oxa-2λ^6-thia-3,9,11-triazatetracyclo[17.3.1.111,14.05,10]tetracosa-1(22),5,7,9,19(23),20-hexaene-2,2,4-trione], the “Corrector Assay A % activity” value is on record as “++ (++ is 30-60%)” and the EC50 was under 1000 nM.

With `CC(C)(C)c1ccc2c(n1)N1CC(CCCOc3cccc(c3)S(=O)(=O)NC2=O)CC1(C)C` (single isomer, unassigned) [Compound 257, 8-tert-Butyl-12,12-dimethyl-18-oxa-2λ^6-thia-3,9,11-triazatetracyclo[17.3.1.111,14.05,10]tetracosa-1(22),5,7,9,19(23),20-hexaene-2,2,4-trione], the “Corrector Assay A % activity” value is listed as “+ (+ is <30%)”.

For `CC(C)(C)c1ccc2c(n1)N1CC(CC1(C)C)OCCNc1cccc(n1)S(=O)(=O)NC2=O` (single isomer, unassigned) [Compound 258, 8-tert-butyl-12,12-dimethyl-15-oxa-2λ^6-thia-3,9,11,18,23-pentaazatetracyclo[17.3.1.111,14.05,10]tetracosa-1(22),5(10),6,8,19(23),20-hexaene-2,2,4-trione], the “Corrector Assay A % activity” value is “+ (+ is <30%)”.

As for `CC(C)(C)c1ccc2c(n1)N1CC(CC1(C)C)OCCNc1cccc(n1)S(=O)(=O)NC2=O` (single isomer, unassigned) [Compound 259, 8-tert-Butyl-12,12-dimethyl-15-oxa-2λ^6-thia-3,9,11,18,23-pentaazatetracyclo[17.3.1.111,14.05,10]tetracosa-1(22),5(10),6,8,19(23),20-hexaene-2,2,4-trione], the “Corrector Assay A % activity” value is “++ (++ is 30-60%)” and the EC50 is under 1000 nM.

For the molecule `CN1c2cccc(n2)S(=O)(=O)NC(=O)c2ccc(C(C)(C)C)nc2N2C[C@@H](CCC1c1ccccc1)CC2(C)C` (single isomer, unassigned) [Compound 261], the “Corrector Assay A % activity” value is on record as “+ (+ is <30%)” and the EC50 was under 1000 nM.

`CC1(C)CCCc2cc3c(nc21)N1C[C@@H](CCC(c2ccccn2)Nc2cccc(n2)S(=O)(=O)NC3=O)CC1(C)C` (single isomer, unassigned) [Compound 263]: the “Corrector Assay A % activity” value is on record as “+++ (+++ is >60%)” and the half-maximal effective concentration (EC50) was under 1000 nM.

`CC1(C)CCCc2cc3c(nc21)N1C[C@@H](CCC(c2ccccn2)Nc2cccc(n2)S(=O)(=O)NC3=O)CC1(C)C` (single isomer, unassigned) [Compound 264]: the “Corrector Assay A % activity” value is recorded as “++ (++ is 30-60%)” and the 50% effective concentration (EC50) is under 1000 nM.

On to `CC(C)(C)c1ccc2c(n1)N1CC(CCN(c3ccccc3)C(=O)c3cccc(c3)S(=O)(=O)NC2=O)CC1(C)C` (single isomer, unassigned) [Compound 266, 8-tert-butyl-12,12-dimethyl-17-phenyl-2λ^6-thia-3,9,11,17-tetraazatetracyclo[17.3.1.111,14.05,10]tetracosa-1(22),5,7,9,19(23),20-hexaene-2,2,4,18-tetrone], for which the “Corrector Assay A % activity” value is recorded as “+ (+ is <30%)”.

On to `CC(C)(C)c1ccc2c(n1)N1CC(CCN(c3ccccc3)C(=O)c3cccc(c3)S(=O)(=O)NC2=O)CC1(C)C` (single isomer, unassigned) [Compound 267, 8-tert-Butyl-12,12-dimethyl-17-phenyl-2λ^6-thia-3,9,11,17-tetraazatetracyclo[17.3.1.111,14.05,10]tetracosa-1(22),5,7,9,19(23),20-hexaene-2,2,4,18-tetrone], for which the “Corrector Assay A % activity” value is “+ (+ is <30%)” and the EC50 was over 3000 nM.

Turning to `CC(C)(C)c1ccc2c(n1)N1C[C@@H](CC[C@@H](C3CCOCC3)Nc3cccc(n3)S(=O)(=O)NC2=O)CC1(C)C` (single isomer, unassigned) [Compound 268], the “Corrector Assay A % activity” value is recorded as “+++ (+++ is >60%)” and the EC50 was under 1000 nM.

`CC(C)(C)c1ccc2c(n1)N1C[C@@H](CC[C@@H](C3CCOCC3)Nc3cccc(n3)S(=O)(=O)NC2=O)CC1(C)C` (single isomer, unassigned) [Compound 269]: the “Corrector Assay A % activity” value is given as “++ (++ is 30-60%)” and the EC50 is under 1000 nM.

As to `CC(C)CN1c2cccc(n2)S(=O)(=O)NC(=O)c2ccc(C(C)(C)C)nc2N2C[C@@H](CCC1c1ccccc1)CC2(C)C` (single isomer, unassigned) [Compound 270], the “Corrector Assay A % activity” value was “+ (+ is <30%)”.

With `CC(C)CN1c2cccc(n2)S(=O)(=O)NC(=O)c2ccc(C(C)(C)C)nc2N2C[C@@H](CC[C@H]1c1ccccc1)CC2(C)C` (single isomer, unassigned) [Compound 271], the “Corrector Assay A % activity” value is listed as “+ (+ is <30%)”.

Turning to `CC1CCC2CN(c3nc(C(C)(C)C)ccc3C(=O)NS(=O)(=O)c3ccn1n3)C(C)(C)C2` (single isomer, unassigned) [Compound 272], the “Corrector Assay A % activity” value is “+++ (+++ is >60%)” and the EC50 is under 1000 nM.

On to `CC1CCC2CN(c3nc(C(C)(C)C)ccc3C(=O)NS(=O)(=O)c3ccn1n3)C(C)(C)C2` (single isomer, unassigned) [Compound 273], for which the “Corrector Assay A % activity” value is reported as “++ (++ is 30-60%)” and the EC50 lay in the range of 1000 to 3000 nM.

`CC(C)(C)c1ccc2c(n1)N1C[C@@H](CCC(c3ccccc3)n3ccc(n3)S(=O)(=O)NC2=O)CC1(C)C` (single isomer, unassigned) [Compound 274]: the “Corrector Assay A % activity” value is listed as “++ (++ is 30-60%)” and the EC50 was under 1000 nM.

As to `CC(C)(C)c1ccc2c(n1)N1C[C@@H](CCC(c3ccccc3)n3ccc(n3)S(=O)(=O)NC2=O)CC1(C)C` (single isomer, unassigned) [Compound 275], the “Corrector Assay A % activity” value is given as “++ (++ is 30-60%)” and the half-maximal effective concentration (EC50) is under 1000 nM.

`COC[C@@H]1CC[C@@H]2CN(c3nc(C(C)(C)C)ccc3C(=O)NS(=O)(=O)c3cccc(n3)N1)C(C)(C)C2` (single isomer, unassigned) [Compound 276]: the “Corrector Assay A % activity” value is on record as “++ (++ is 30-60%)” and the EC50 is under 1000 nM.

Take `COC[C@@H]1CC[C@@H]2CN(c3nc(C(C)(C)C)ccc3C(=O)NS(=O)(=O)c3cccc(n3)N1)C(C)(C)C2` (single isomer, unassigned) [Compound 277]: the “Corrector Assay A % activity” value is listed as “+++ (+++ is >60%)” and the 50% effective concentration (EC50) is under 1000 nM.

In the case of `Cn1ccc(C2CC[C@@H]3CN(c4nc(C(C)(C)C)ccc4C(=O)NS(=O)(=O)c4cccc(n4)N2)C(C)(C)C3)n1` (single isomer, unassigned) [Compound 278], the “Corrector Assay A % activity” value is on record as “++ (++ is 30-60%)” and the EC50 is under 1000 nM.

As for `Cn1ccc(C2CC[C@@H]3CN(c4nc(C(C)(C)C)ccc4C(=O)NS(=O)(=O)c4cccc(n4)N2)C(C)(C)C3)n1` (single isomer, unassigned) [Compound 279], the “Corrector Assay A % activity” value is reported as “+++ (+++ is >60%)” and the EC50 was under 1000 nM.

For `Cn1cc(C2CC[C@@H]3CN(c4nc(C(C)(C)C)ccc4C(=O)NS(=O)(=O)c4cccc(n4)N2)C(C)(C)C3)cn1` (single isomer, unassigned) [Compound 280], the “Corrector Assay A % activity” value is “+++ (+++ is >60%)” and the EC50 is under 1000 nM.

Turning to `Cn1cc(C2CC[C@@H]3CN(c4nc(C(C)(C)C)ccc4C(=O)NS(=O)(=O)c4cccc(n4)N2)C(C)(C)C3)cn1` (single isomer, unassigned) [Compound 281], the “Corrector Assay A % activity” value is “+++ (+++ is >60%)” and the EC50 is under 1000 nM.

With `CC(C)(C)c1ccc2c(n1)N1C[C@@H](CCC(c3cccnc3)Nc3cccc(n3)S(=O)(=O)NC2=O)CC1(C)C` (single isomer, unassigned) [Compound 282], the “Corrector Assay A % activity” value was “+++ (+++ is >60%)” and the concentration giving a half-maximal response (EC50) was under 1000 nM.

For the molecule `CC(C)(C)c1ccc2c(n1)N1C[C@@H](CCC(c3cccnc3)Nc3cccc(n3)S(=O)(=O)NC2=O)CC1(C)C` (single isomer, unassigned) [Compound 283], the “Corrector Assay A % activity” value is listed as “+++ (+++ is >60%)” and the EC50 was under 1000 nM.

Regarding `Cn1nccc1C1CC[C@@H]2CN(c3nc(C(C)(C)C)ccc3C(=O)NS(=O)(=O)c3cccc(n3)N1)C(C)(C)C2` (single isomer, unassigned) [Compound 284], the “Corrector Assay A % activity” value was “++ (++ is 30-60%)” and the half-maximal effective concentration (EC50) was under 1000 nM.

In the case of `Cn1nccc1C1CC[C@@H]2CN(c3nc(C(C)(C)C)ccc3C(=O)NS(=O)(=O)c3cccc(n3)N1)C(C)(C)C2` (single isomer, unassigned) [Compound 285], the “Corrector Assay A % activity” value was “+++ (+++ is >60%)” and the 50% effective concentration (EC50) is under 1000 nM.

As for `CC(C)C1CC[C@@H]2CN(c3nc(C(C)(C)C)ccc3C(=O)NS(=O)(=O)c3cccc(n3)N1)C(C)(C)C2` (single isomer, unassigned) [Compound 286], the “Corrector Assay A % activity” value was “+++ (+++ is >60%)” and the concentration for a half-maximal effect (EC50) was under 1000 nM.

On to `CC(C)C1CC[C@@H]2CN(c3nc(C(C)(C)C)ccc3C(=O)NS(=O)(=O)c3cccc(n3)N1)C(C)(C)C2` (single isomer, unassigned) [Compound 287], for which the “Corrector Assay A % activity” value is “+++ (+++ is >60%)” and the EC50 is under 1000 nM.

With `CC(C)COc1cc(F)cc(-c2ccc3c(n2)N2C[C@@H](CCC(c4ccccn4)Nc4cccc(n4)S(=O)(=O)NC3=O)CC2(C)C)c1` (single isomer, unassigned) [Compound 351], the “Corrector Assay A % activity” value is “+++ (+++ is >60%)” and the half-maximal effective concentration (EC50) was under 1000 nM.

As to `CC(C)COc1cc(F)cc(-c2ccc3c(n2)N2C[C@@H](CCC(c4ccccn4)Nc4cccc(n4)S(=O)(=O)NC3=O)CC2(C)C)c1` (single isomer, unassigned) [Compound 352], the “Corrector Assay A % activity” value was “++ (++ is 30-60%)” and the EC50 is under 1000 nM.
